Assay results from US7776833B2, “Use of cyclic bioisosters of purine system derivatives for treating diseases produced by disorders of niterergic and dopaminergic systems” (priority 2003, dated 2010).

Legend:
Type in all cases: in vivo, Wistar rats
[1] = test system: physical dependence from morphine (morphine abstinence); experiment: Morphine abstinence syndrome, signs scored in the open field test; conditions: Morphine − (morphine + compound); compound 3 x 20 mg/kg intramuscularly; one value for the three compounds
[2] = test system: nitric oxide synthase (NOS); experiment: Nitric oxide synthase activity in brain regions, radiometric [3H]L-citrulline method; conditions: 3 x 20 mg/kg intramuscularly
In short: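 Rat cortex, hippocampus, mesencephalon, striatum, brainstem, hypothalamus and cerebellum were homogenized in 20 mM HEPES pH 7.5, and the 11000 g supernatant was incubated 15-60 min at 37 °C with [3H]L-arginine, 0.2 mM CaCl2, FAD, FMN, NADPH and BH4. [3H]L-citrulline was counted after Dowex removal of arginine. Ca2+-dependent/independent activity was split using EDTA ± L-NAME, per mg Bradford protein.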

[3] = test system: nitrites and nitrates (NOx-); experiment: Measurement of nitrates/nitrites (NOx-) in brain regions after the morphine abstinence experiment; conditions: 3 x 20 mg/kg intramuscularly
In short: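 Rat brain regions homogenized in 20 mM HEPES pH 7.5 at 4 °C; deproteinized supernatants treated with nitrate reductase, 25 μM NADPH, 25 μM FAD (37 °C, 30 min), then DAN in acid; naphthotriazole fluorescence (ex 365/em 405 nm) against sodium nitrate standard, expressed as nmol/mg protein (Bradford).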

[4] = Groups Nos. 3-14, compound without morphine, one value for all 12 compounds
[5] = Morphine + compound, one value for the three compounds

Row | SMILES | Authentic differences (ξ-square criterion) in appearance of signs of abstinence: <<Wet dog>> shakes [1] | Authentic differences (ξ-square criterion) in appearance of signs of abstinence: Aggression [1] | Authentic differences (ξ-square criterion) in appearance of signs of abstinence: Convulsions [1] | Authentic differences (ξ-square criterion) in appearance of signs of abstinence: Diarrhea [1] | Authentic differences (ξ-square criterion) in appearance of signs of abstinence: Dyspnea [1] | Authentic differences (ξ-square criterion) in appearance of signs of abstinence: Forelimb jogging [1] | Authentic differences (ξ-square criterion) in appearance of signs of abstinence: Grit with teeth [1] | Authentic differences (ξ-square criterion) in appearance of signs of abstinence: Mastication [1] | Authentic differences (ξ-square criterion) in appearance of signs of abstinence: Piloerection [1] | Authentic differences (ξ-square criterion) in appearance of signs of abstinence: Ptosis [1] | Authentic differences (ξ-square criterion) in appearance of signs of abstinence: Rhinorrhea [1] | Authentic differences (ξ-square criterion) in appearance of signs of abstinence: Squeak when touched [1] | Activity of NOS, hippocampus [2, 4] | Activity of NOS, hypothalamus [2, 4] | Activity of NOS, midbrain [2, 4] | Activity of NOS, striatum [2, 4] | Activity of NOS, hippocampus [2, 5] | Activity of NOS, hypothalamus [2, 5] | Activity of NOS, midbrain [2, 5] | Activity of NOS, striatum [2, 5] | other results
1 | O=C([O-])c1ccc2c(=O)[nH][nH]c(=O)c2c1.O=C([O-])c1ccc2c(=O)[nH][nH]c(=O)c2c1.[Na+].[Na+] [Compound 18, disodium salt of 6-carboxy-benzo [d]-3H-pyridazine-1,4-dione] | 0.7562 | 0.8456 | 0.7546 | 0.0032 | 0.0834 | 0.8217 | 0.8652 | 0.1032 | 0.2567 | 0.0320 | 0.4032 | 0.1342 | 3.09 ± 0.16 nmol/min/mg of protein | 5.45 ± 0.24 nmol/min/mg of protein | 2.60 ± 0.29 nmol/min/mg of protein | 1.26 ± 0.08 nmol/min/mg of protein | 2.51 ± 0.19 nmol/min/mg of protein | 5.36 ± 0.33 nmol/min/mg of protein | 1.99 ± 0.29 nmol/min/mg of protein | 1.29 ± 0.09 nmol/min/mg of protein | Nitrites, brainstem [3, 4]: 6.31 ± 0.58 nmol/mg of protein; Nitrites, cerebellum [3, 4]: 6.66 ± 0.63 nmol/mg of protein; Nitrites, cerebral cortex [3, 4]: 4.31 ± 0.37 nmol/mg of protein; Nitrites, hippocampus [3, 4]: 6.47 ± 0.72 nmol/mg of protein; Nitrites, hypothalamus [3, 4]: 6.77 ± 0.83 nmol/mg of protein; Nitrites, midbrain [3, 4]: 6.65 ± 0.70 nmol/mg of protein; Nitrites, striatum [3, 4]: 6.11 ± 0.29 nmol/mg of protein; Nitrites, brainstem [3, 5]: 6.99 ± 0.82 nmol/mg of protein; Nitrites, cerebellum [3, 5]: 5.85 ± 0.47 nmol/mg of protein; Nitrites, cerebral cortex [3, 5]: 4.93 ± 0.39 nmol/mg of protein; Nitrites, hippocampus [3, 5]: 5.24 ± 0.49 nmol/mg of protein; Nitrites, hypothalamus [3, 5]: 6.91 ± 0.58 nmol/mg of protein; Nitrites, midbrain [3, 5]: 5.75 ± 0.39 nmol/mg of protein; Nitrites, striatum [3, 5]: 3.57 ± 0.42 nmol/mg of protein
2 | Nc1cnc2c(=O)n([C@@H]3O[C@H](CO)[C@@H](O)[C@H]3O)[nH]c(=O)c2n1.[Na] [Compound 21, sodium salt of 3-amino-7-(β-D-ribofuranosile)pyrazino[2,3-d]-6H-pyridazine-5,8-dione] | 0.7821 | 0.7921 | 0.3456 | 0.0067 | 0.0567 | 0.6745 | 0.2994 | 0.1975 | 0.2567 | 0.0105 | 0.2131 | 0.1968 | 3.09 ± 0.16 nmol/min/mg of protein | 5.45 ± 0.24 nmol/min/mg of protein | 2.60 ± 0.29 nmol/min/mg of protein | 1.26 ± 0.08 nmol/min/mg of protein | 2.33 ± 0.11 nmol/min/mg of protein | 5.47 ± 0.32 nmol/min/mg of protein | 2.03 ± 0.31 nmol/min/mg of protein | 1.21 ± 0.10 nmol/min/mg of protein | Nitrites, brainstem [3, 4]: 6.31 ± 0.58 nmol/mg of protein; Nitrites, cerebellum [3, 4]: 6.66 ± 0.63 nmol/mg of protein; Nitrites, cerebral cortex [3, 4]: 4.31 ± 0.37 nmol/mg of protein; Nitrites, hippocampus [3, 4]: 6.47 ± 0.72 nmol/mg of protein; Nitrites, hypothalamus [3, 4]: 6.77 ± 0.83 nmol/mg of protein; Nitrites, midbrain [3, 4]: 6.65 ± 0.70 nmol/mg of protein; Nitrites, striatum [3, 4]: 6.11 ± 0.29 nmol/mg of protein; Nitrites, brainstem [3, 5]: 7.07 ± 0.85 nmol/mg of protein; Nitrites, cerebellum [3, 5]: 5.76 ± 0.49 nmol/mg of protein; Nitrites, cerebral cortex [3, 5]: 4.62 ± 0.27 nmol/mg of protein; Nitrites, hippocampus [3, 5]: 5.27 ± 0.41 nmol/mg of protein; Nitrites, hypothalamus [3, 5]: 6.87 ± 0.75 nmol/mg of protein; Nitrites, midbrain [3, 5]: 5.99 ± 0.58 nmol/mg of protein; Nitrites, striatum [3, 5]: 3.57 ± 0.42 nmol/mg of protein
